Here are results for 46 substances from patent US11214803B2, “Modulators of YAP1 expression” (Ionis Pharmaceuticals, Inc., priority 2019, dated 2022).

The subject of the data set is Yap1 mRNA. As to the kind of experiment: Antisense inhibition of human Yap1 in SNU-449 cells by modified oligonucleotides, single dose (Example 5, RTS36584). It counts as cell-based. Put shortly: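 Plate SNU-449 cells at 10,000 per well; add 2,000 nM modified oligonucleotide without transfection reagent; after ~48 h isolate RNA, run qRT-PCR with RTS36584, normalise to RIBOGREEN and report % UTC.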

Where [1] appears, read: Table 42 (separate experiment), SNU-449 cells, 10,000 cells per well, free uptake, 2,000 nM modified oligonucleotide, approximately 48 hours, RTS36584, normalized to RIBOGREEN, Yap1 mRNA relative to untreated control cells.
Where [2] appears, read: Table 51, Yap1 mRNA remaining as percent of untreated control (UT), SNU-449 cells, single dose.
Where [3] appears, read: Table 50, Yap1 mRNA remaining as percent of untreated control (UT), SNU-449 cells, single dose.
[4] abbreviates: Yap1 mRNA, percent of untreated control, modified oligonucleotides targeting SEQ ID NO: 1 and 2, Table 47.
Where [5] appears, read: Table 44 experiment, SNU-449 cells, 10,000 cells per well, free uptake, 2,000 nM, approximately 48 hours, RTS36584, Yap1 mRNA normalized to RIBOGREEN, relative to untreated control cells.
Setting [6] is: Table 46, Yap1 mRNA as percent of untreated control, SNU-449 cells, single dose.
The mark [7] stands for this setting: Table 52, Yap1 mRNA, modified oligonucleotides targeting SEQ ID NO: 1 and 2.
Setting [8] is: Table 39, SNU-449 cells, 10,000 cells per well, free uptake, 2,000 nM oligonucleotide, approx. 48 hours, RTS36584, normalized to RIBOGREEN, Yap1 mRNA relative to untreated control.
[9] abbreviates: Table 41, SNU-449 cells, 10,000 cells per well, free uptake, 2,000 nM modified oligonucleotide, approximately 48 hours, RTS36584, normalized to RIBOGREEN, Yap1 mRNA relative to untreated control cells.
The mark [10] stands for this setting: Table 45, Yap1 mRNA as percent of untreated control, SNU-449 cells, single dose.
The mark [11] stands for this setting: Table 48, Yap1 mRNA level relative to untreated control, modified oligonucleotides targeting SEQ ID NO.: 1 and 2.
[12] abbreviates: Table 49, Yap1 mRNA level relative to untreated control, modified oligonucleotides targeting SEQ ID NO.: 1 and 2.

Strand notation (5' to 3'): a small letter for the sugar, then the base; units joined by * are phosphorothioate-linked, units joined directly phosphodiester-linked; [ ] holds rarer units or linkages, { } end groups; capitals alone tell only the bases. e = 2'-O-(2-methoxyethyl) (MOE); k = constrained ethyl (cEt); [5mC] = 5-methylcytosine; d = 2'-deoxy (DNA); m = 2'-O-methyl

Consider “1198233 (k[5mC]*kT*dT*dT*dG*dG*dA*dA*dG*dA*dT*e[5mC]*eT*eG*kA*kA) [Compound 1198233]”, for which the “YAP1 (% UTC)” value under setting [1] was found to be 49 % UTC.
On the same count and under the same terms, with “1095483 (antisense k[5mC]*kA*d[5mC]*dT*dG*dA*dG*dG*dT*dA*dT*dA*kA*e[5mC]*kT*eG) [Compound 1095483]” the figure was 101 % UTC.
As for “1197275 (kA*kA*kG*dT*mA*dA*dG*dG*dT*dT*dT*d[5mC]*d[5mC]*k[5mC]*kA*kG) [Compound 1197275]”, the “YAP1 (% UT)” value under setting [2] was found to be 30 % UT.
As to “1198593 (antisense kT*kT*kA*dT*dA*dT*dG*dG*dT*dT*dT*dT*kG*kT*kG*eT) [Compound 1198593]”, the “YAP1 (% UT)” value under setting [3] worked out at 45 % UT.
Consider “1197206 (antisense kA*kT*kA*dT*dT*dG*d[5mC]*dA*dA*dT*d[5mC]*dT*dG*kT*k[5mC]*kT) [Compound 1197206]”, for which the “YAP1 (% UT)” value under setting [4] is 63 % UT.
Consider “1198475 (antisense kG*kG*dT*dA*dT*dA*dA*d[5mC]*dT*dG*dG*eG*k[5mC]*eA*kA*eA) [Compound 1198475]”, for which the “YAP1 (% UTC)” value under setting [5] is 25 % UTC.
Take “1197284 (kA*kG*kT*dA*mU*dG*dT*dG*dG*d[5mC]*dA*dA*dT*kA*kA*kT; antisense) [Compound 1197284]”: under setting [3], the “YAP1 (% UT)” value was found to be 35 % UT.
In the case of “1198840 (kG*k[5mC]*dT*dT*dT*dG*dG*dA*dA*dG*dA*kT*e[5mC]*kT*eG*kA; antisense) [Compound 1198840]”, under setting [6], the “YAP1 (% UT)” value was 26 % UT.
On to “1197248 (antisense kT*kT*kA*dA*mG*d[5mC]*dA*d[5mC]*dT*dT*dT*dT*dA*k[5mC]*kA*kT) [Compound 1197248]”, for which the “YAP1 (% UT)” value under setting [2] came to 75 % UT.
On to “1200841 (kT*k[5mC]*kT*dT*dA*mU*dA*dT*dG*dG*dT*dT*dT*kT*kG*kT; antisense) [Compound 1200841]”, for which the “YAP1 (% UT)” value under setting [7] was 76 % UT.
Regarding “1198405 (k[5mC]*dT*dT*dT*dG*dG*dA*dA*dG*dA*dT*k[5mC]*eT*kG*eA*kA; antisense) [Compound 1198405]”, the “YAP1 (% UTC)” value under setting [8] came to 36 % UTC.
“1200824 (kG*k[5mC]*kT*dT*dT*mG*dG*dA*dA*dG*dA*dT*d[5mC]*kT*kG*kA; antisense) [Compound 1200824]”: the “YAP1 (% UT)” value under setting [7] is 43 % UT.
Consider “1198615 (antisense kT*kT*kA*dA*dA*dG*dT*dG*dT*dA*dT*dG*kT*k[5mC]*kA*eG) [Compound 1198615]”, for which the “YAP1 (% UT)” value under setting [3] worked out at 10 % UT.
For “1198785 (antisense kT*eT*kT*dA*dT*dG*dT*dA*dA*dT*dA*dT*eT*eG*k[5mC]*kA) [Compound 1198785]”, the “YAP1 (% UTC)” value (Table 40 (separate experiment), SNU-449 cells, 10,000 cells per well, free uptake, 2,000 nM oligonucleotide, approx. 48 hours, RTS36584, normalized to RIBOGREEN, Yap1 mRNA relative to untreated control) is given as 86 % UTC.
In the case of “1198664 (antisense kG*k[5mC]*dT*dT*dT*dG*dG*dA*dA*dG*dA*dT*k[5mC]*eT*kG*eA) [Compound 1198664]”, under setting [9], the “YAP1 (% UTC)” value is 18 % UTC.
For “1198944 (k[5mC]*kT*d[5mC]*dT*dT*dA*dT*dA*dT*dG*dG*kT*dT*kT*dT*kG; antisense) [Compound 1198944]”, the “YAP1 (% UTC)” value under setting [10] is 34 % UTC.
For “1198890 (kT*kG*dT*d[5mC]*dT*d[5mC]*dA*dT*dG*d[5mC]*d[5mC]*kT*dT*kA*dT*kA) [Compound 1198890]”, under setting [5], the “YAP1 (% UTC)” value is on record as 19 % UTC.
As to “1197244 (antisense kT*kT*kA*d[5mC]*mA*dT*dT*dA*dG*dG*dA*dA*d[5mC]*kA*kA*kG) [Compound 1197244]”, the “YAP1 (% UT)” value under setting [3] came out at 60 % UT.
For “1198348 (kT*kG*kT*dA*dA*dT*dA*dT*dT*dG*d[5mC]*dA*kA*eT*k[5mC]*eT; antisense) [Compound 1198348]”, the “YAP1 (% UT)” value under setting [11] came to 40 % UT.
For the substance “1198551 (antisense kA*kG*kT*dA*dT*dG*dT*dG*dG*d[5mC]*dA*dA*kT*kA*kA*eT) [Compound 1198551]”, the “YAP1 (% UT)” value under setting [12] stood at 34 % UT.
On to “1198962 (kT*kA*dA*dA*dG*dT*dG*dT*dA*dT*dG*kT*d[5mC]*kA*dG*kA; antisense) [Compound 1198962]”, for which the “YAP1 (% UTC)” value under setting [10] is 52 % UTC.
Still for that read-out and setting: to “1198897 (kA*kT*dG*dG*dA*dA*dA*dT*dT*dG*dT*k[5mC]*dT*k[5mC]*dA*kT; antisense) [Compound 1198897]” belongs 61 % UTC.
As to “1198826 (kA*kA*d[5mC]*dA*d[5mC]*dT*dG*dA*dG*dG*dT*kA*eT*kA*eA*k[5mC]; antisense) [Compound 1198826]”, the “YAP1 (% UT)” value under setting [6] was determined as 64 % UT.
For “1198685 (antisense k[5mC]*kA*dA*d[5mC]*dT*d[5mC]*dT*dT*dA*dT*dA*dT*kG*eG*kT*eT) [Compound 1198685]”, the “YAP1 (% UTC)” value under setting [1] is reported as 70 % UTC.
“1095427 (antisense k[5mC]*kA*d[5mC]*dT*dG*dA*dG*dG*dT*dA*dT*kA*eA*k[5mC]*eT*kG) [Compound 1095427]”: the “YAP1 (% UT)” value under setting [6] was determined as 45 % UT.
Regarding “1198219 (kG*kA*dG*dG*dT*dA*dT*dA*dA*d[5mC]*dT*eG*eG*eG*k[5mC]*kA; antisense) [Compound 1198219]”, the “YAP1 (% UTC)” value (Table 43 experiment, SNU-449 cells, 10,000 cells per well, free uptake, 2,000 nM, approximately 48 hours, RTS36584, Yap1 mRNA normalized to RIBOGREEN, relative to untreated control cells) is listed as 22 % UTC.
On to “1095399 (antisense k[5mC]*dA*d[5mC]*dT*dG*dA*dG*dG*dT*dA*dT*kA*eA*k[5mC]*eT*kG) [Compound 1095399]”, for which, under setting [8], the “YAP1 (% UTC)” value is listed as 46 % UTC.
Take “1198580 (antisense kG*kT*kG*d[5mC]*dT*dT*dT*dG*dG*dA*dA*dG*kA*kT*k[5mC]*eT) [Compound 1198580]”: the “YAP1 (% UT)” value under setting [12] was 43 % UT.
With “1198507 (kT*kT*dA*dT*dA*dT*dG*dG*dT*dT*dT*eT*kG*eT*kG*eT; antisense) [Compound 1198507]”, the “YAP1 (% UTC)” value under setting [5] came out at 17 % UTC.
On to “1198299 (ATATTAGAGTATGTGG; chemistry not fully specified) [Compound 1198299]”, for which the “YAP1 (% UT)” value under setting [11] was found to be 27 % UT.
With “1198924 (kT*kT*dT*dG*dG*dA*dA*dG*dA*dT*d[5mC]*kT*dG*kA*dA*kA; antisense) [Compound 1198924]”, the “YAP1 (% UTC)” value under setting [10] was 75 % UTC.
For “1198891 (kA*kT*dT*dG*dT*d[5mC]*dT*d[5mC]*dA*dT*dG*k[5mC]*d[5mC]*kT*dT*kA) [Compound 1198891]”, the “YAP1 (% UTC)” value under setting [5] was 18 % UTC.
Consider “1198334 (kA*kT*kA*dT*dG*dG*dT*dT*dT*dT*dG*dT*kG*eT*kG*eT; antisense) [Compound 1198334]”, for which, under setting [12], the “YAP1 (% UT)” value was 57 % UT.
“1198293 (kA*kG*kT*dA*dT*dG*dT*dG*dG*d[5mC]*dA*dA*kT*eA*kA*eT; antisense) [Compound 1198293]”: the “YAP1 (% UT)” value under setting [11] is given as 25 % UT.
As to “1198789 (antisense kA*eA*kA*dG*dT*dG*dT*dA*dT*dG*dT*d[5mC]*eA*eG*kA*kA) [Compound 1198789]”, the “YAP1 (% UTC)” value under setting [9] amounted to 22 % UTC.
“1198546 (antisense kG*kA*kA*dA*dT*dT*dG*dT*d[5mC]*dT*d[5mC]*dA*kT*kG*k[5mC]*e[5mC]) [Compound 1198546]”: under setting [12], the “YAP1 (% UT)” value turned out to be 11 % UT.
In the case of “1198454 (kA*dG*dA*d[5mC]*dT*dA*dA*dG*dT*dA*dA*kG*eG*kT*eT*kT; antisense) [Compound 1198454]”, the “YAP1 (% UTC)” value under setting [8] worked out at 39 % UTC.
Consider “1198398 (kG*d[5mC]*dA*dC*dT*dT*dT*dT*dA*d[5mC]*dA*kT*eT*kA*eG*kG) [Compound 1198398]”, for which the “YAP1 (% UTC)” value under setting [8] stood at 18 % UTC.
As to “1197187 (antisense kG*kG*kA*dA*dG*dA*dT*d[5mC]*dT*dG*dA*dA*dA*k[5mC]*kT*k[5mC]) [Compound 1197187]”, the “YAP1 (% UT)” value under setting [4] stood at 24 % UT.
Still for that read-out and setting: to “1197180 (antisense kA*kT*kG*dG*dA*dA*dA*dT*dT*dG*dT*d[5mC]*dT*k[5mC]*kA*kT) [Compound 1197180]” belongs 47 % UT.
As to “1198882 (kA*kG*dT*dA*dA*dG*dG*dT*dT*dT*d[5mC]*k[5mC]*e[5mC]*kA*eG*kA; antisense) [Compound 1198882]”, under setting [6], the “YAP1 (% UT)” value amounted to 56 % UT.
Regarding “1198570 (antisense kG*k[5mC]*kA*d[5mC]*dT*dT*dT*dT*dA*d[5mC]*dA*dT*kT*kA*kG*eG) [Compound 1198570]”, the “YAP1 (% UT)” value under setting [12] worked out at 15 % UT.
In the case of “1198383 (kA*dT*dT*dA*dG*dA*dG*dT*dA*dT*dG*kT*eG*kG*e[5mC]*kA; antisense) [Compound 1198383]”, the “YAP1 (% UTC)” value under setting [8] came to 31 % UTC.
Take “1197250 (antisense kT*kT*kG*dG*mA*dA*dG*dA*dT*d[5mC]*dT*dG*dA*kA*kA*k[5mC]) [Compound 1197250]”: under setting [2], the “YAP1 (% UT)” value came to 60 % UT.
For “1198791 (antisense kT*eT*kA*dA*dA*dG*dT*dG*dT*dA*dT*dG*eT*e[5mC]*kA*kG) [Compound 1198791]”, under setting [9], the “YAP1 (% UTC)” value turned out to be 39 % UTC.
Take “1197245 (antisense kT*kT*kT*dT*mA*d[5mC]*dA*dT*dT*dA*dG*dG*dA*kA*k[5mC]*kA) [Compound 1197245]”: under setting [3], the “YAP1 (% UT)” value came out at 60 % UT.
